Laboratory results: article PMC7440668, “Nitrogen coordinated import and export of arginine across the yeast vacuolar membrane” (PLoS Genetics, 2020)

Key:
Assay type in all cases: biochemical
Ypq2 [1] = biological target: T1, Ypq2 (Saccharomyces cerevisiae, UniProt Q06328); assay: inhibition of Ypq2-dependent […]-Arg uptake into isolated vacuoles, […] min; conditions: 50 μM 14C-Arg, no ATP; competitor added simultaneously
T1 construct: native full-length protein in isolated intact vacuoles; ypq1-2-3 triple-mutant background subtracted from ypq1-3 double-mutant
T1 sequence (Q06328 1-317): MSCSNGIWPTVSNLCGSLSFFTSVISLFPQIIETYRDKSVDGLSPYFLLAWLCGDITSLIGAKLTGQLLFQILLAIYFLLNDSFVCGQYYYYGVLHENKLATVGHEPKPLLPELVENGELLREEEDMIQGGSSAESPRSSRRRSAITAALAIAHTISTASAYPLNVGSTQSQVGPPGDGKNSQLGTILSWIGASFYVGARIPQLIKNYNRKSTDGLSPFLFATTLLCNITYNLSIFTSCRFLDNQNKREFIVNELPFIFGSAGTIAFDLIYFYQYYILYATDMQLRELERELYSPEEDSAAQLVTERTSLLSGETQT

Ypq2 [2] = biological target: T1, Ypq2; assay: as above; conditions: read-out: % inhibition at 5 mM
Avt1 = biological target: T2, Avt1 (Saccharomyces cerevisiae, UniProt P47082); assay: 3H-L-tyrosine uptake into isolated intact vacuoles, wild type versus avt1 deletion; conditions: 50 μM 3H-tyrosine, 4 mM ATP, 27 °C; needs H+ gradient; labelled compound
T2 construct: native full-length protein in isolated intact vacuoles; wild type versus avt1 deletion mutant
T2 sequence (P47082 1-602): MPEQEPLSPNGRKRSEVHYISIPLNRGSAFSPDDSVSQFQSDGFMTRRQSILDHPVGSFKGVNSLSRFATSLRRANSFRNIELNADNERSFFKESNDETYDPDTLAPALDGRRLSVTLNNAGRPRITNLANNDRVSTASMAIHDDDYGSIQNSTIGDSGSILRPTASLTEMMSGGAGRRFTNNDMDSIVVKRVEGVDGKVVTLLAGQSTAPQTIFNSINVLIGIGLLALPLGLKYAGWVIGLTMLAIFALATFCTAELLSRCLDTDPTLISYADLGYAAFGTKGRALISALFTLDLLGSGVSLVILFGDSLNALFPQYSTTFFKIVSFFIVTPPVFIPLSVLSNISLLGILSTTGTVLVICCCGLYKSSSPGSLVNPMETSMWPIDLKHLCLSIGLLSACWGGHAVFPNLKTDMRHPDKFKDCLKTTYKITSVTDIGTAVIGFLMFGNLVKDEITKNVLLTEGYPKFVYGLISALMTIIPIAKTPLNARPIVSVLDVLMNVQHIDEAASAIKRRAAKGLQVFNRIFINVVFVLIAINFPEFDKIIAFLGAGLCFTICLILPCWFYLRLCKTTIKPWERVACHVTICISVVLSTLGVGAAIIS

Row | SMILES | % inhibition at 5 mM (Ypq2 [1]) | also measured
1 | N=C(N)NOCC[C@H](N)C(=O)O [Canavanine] | Canavanine, the D-Arg and the L- and D-isomers of His completely inhibited the uptake | –
2 | N=C(N)NCCC[C@@H](N)C(=O)O [D-Arg] | Canavanine, the D-Arg and the L- and D-isomers of His completely inhibited the uptake | –
3 | N[C@H](Cc1c[nH]cn1)C(=O)O [D-isomer of His] | Canavanine, the D-Arg and the L- and D-isomers of His completely inhibited the uptake | –
4 | N[C@@H](Cc1cnc[nH]1)C(=O)O [His] | Canavanine, the D-Arg and the L- and D-isomers of His completely inhibited the uptake | –
5 | NCCCC[C@H](N)C(=O)O [Lys] | – | inhibition at 5000 µM (Ypq2 [2]): ~50%
6 | NCCC[C@H](N)C(=O)O [ornithine] | – | inhibition at 5000 µM (Ypq2 [2]): ~50%
7 | N[C@@H](Cc1ccc(O)cc1)C(=O)O [tyrosine] | – | 3H-L-tyrosine uptake into isolated intact vacuoles, wild type versus avt1 deleti (Avt1): Nor was it detected in vacuoles isolated from the avt1Δ mutant
